Laboratory results taken from ChEMBL document CHEMBL3400082, “Synthesis of 6-aryl-substituted sulfocoumarins and investigation of their carbonic anhydrase inhibitory action” (Bioorg Med Chem, 2015).

What was measured:
Carbonic anhydrase 2 = Carbonic anhydrase 2 (Homo sapiens, UniProt P00918); assay: Inhibition of human cytosolic carbonic anhydrase 2 by stopped-flow CO2 hydrase assay
Carbonic anhydrase 1 = Carbonic anhydrase 1 (Homo sapiens, UniProt P00915); assay: Inhibition of human cytosolic carbonic anhydrase 1 by stopped-flow CO2 hydrase assay
Carbonic anhydrase 9 = Carbonic anhydrase 9 (Homo sapiens, UniProt Q16790); assay: Inhibition of human tumor-associated carbonic anhydrase 9 by stopped-flow CO2 hydrase assay

Sequence of Carbonic anhydrase 1 (P00915 whole entry): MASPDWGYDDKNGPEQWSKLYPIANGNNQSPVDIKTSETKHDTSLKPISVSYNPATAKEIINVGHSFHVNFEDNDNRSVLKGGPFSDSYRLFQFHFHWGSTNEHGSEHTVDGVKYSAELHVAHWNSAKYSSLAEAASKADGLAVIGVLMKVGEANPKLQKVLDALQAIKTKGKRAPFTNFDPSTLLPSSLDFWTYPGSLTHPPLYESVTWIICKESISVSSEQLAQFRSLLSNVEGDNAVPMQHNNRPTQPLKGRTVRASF

| SMILES | Ki (Carbonic anhydrase 2) [µM] | Ki (Carbonic anhydrase 1) [µM] | Ki (Carbonic anhydrase 9) [µM] |
| --- | --- | --- | --- |
| O=S1(=O)C=Cc2cc(-c3cccc(F)c3)ccc2O1 | > 10 | > 10 | 0.0103 |
| O=S1(=O)C=Cc2cc(-c3ccc(OC(F)(F)F)cc3)ccc2O1 | > 10 | > 10 | 0.0762 |
| O=S1(=O)C=Cc2cc(-c3ccc(F)cc3)ccc2O1 | > 10 | > 10 | 0.0953 |
| CC(C)Oc1ccc(-c2ccc3c(c2)C=CS(=O)(=O)O3)cc1 | > 10 | > 10 | 0.0098 |
| Cc1ccccc1-c1ccc2c(c1)C=CS(=O)(=O)O2 | > 10 | > 10 | 0.0708 |
| Cc1ccc(-c2ccc3c(c2)C=CS(=O)(=O)O3)cc1 | > 10 | > 10 | 0.0774 |
| O=S1(=O)C=Cc2cc(-c3ccccc3)ccc2O1 | > 10 | > 10 | 0.0599 |
| O=S1(=O)C=Cc2cc(-c3ccc(Cl)c(Cl)c3)ccc2O1 | > 10 | > 10 | 0.0094 |
| O=S1(=O)C=Cc2cc(-c3cccc(C(F)(F)F)c3)ccc2O1 | > 10 | > 10 | 0.0098 |
| O=S1(=O)C=Cc2cc(-c3ccc(C(F)(F)F)cc3)ccc2O1 | > 10 | > 10 | 0.0297 |
| COc1ccc(-c2ccc3c(c2)C=CS(=O)(=O)O3)cc1 | > 10 | > 10 | 0.0709 |
| CC(C)(C)c1ccc(-c2ccc3c(c2)C=CS(=O)(=O)O3)cc1 | > 10 | > 10 | 0.0091 |
| COC(=O)c1cccc(-c2ccc3c(c2)C=CS(=O)(=O)O3)c1 | > 10 | > 10 | 0.009 |
